Experimental data from patent publication US20240279283A1, “CYCLIC PEPTIDE ANTIBIOTICS” (priority 2021, published 2024).
Bridge positions count the residues as written; N and C are the ends. Square brackets hold non-standard residues; d marks the D form. Peptide text beside a SMILES is read from it. Phe(4-Cl) = N[C@@H](Cc1ccc(Cl)cc1)C(=O)O; 1Nal = N[C@@H](Cc1cccc2ccccc12)C(=O)O; His(π-Me) = Cn1cncc1C[C@H](N)C(=O)O; NMeY = CN[C@@H](Cc1ccc(O)cc1)C(=O)O; Abu = CC[C@H](N)C(=O)O; Aib = CC(C)(N)C(=O)O

Experiments:
Format in all cases: cell-based
Details in all cases: LB broth, 5×10^5 CFU/ml, 37° C., 18 hours, scored by eye
E. coli 25922 = experiment: Minimum Inhibitory Concentration (MIC) determination, E. coli 25922; parameters: unit not given here
In short: (§1)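 Peptides, diluted two-fold in LB broth from 10 mM DMSO stocks, were inoculated with 5×10^5 CFU/ml of each strain. Incubation was 18 h at 37 °C without shaking. MIC is the lowest concentration preventing visible growth, scored by eye.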

E. cloacae ATCC222 = experiment: Minimum Inhibitory Concentration (MIC) determination, E. cloacae ATCC222; parameters: unit not given here
Method: (§2) MICs were determined by performing two-fold serial dilutions of peptides in LB broth to a final volume of 0.1 ml in round-bottom 96-well assay plates (Corning Life Sciences No 3788). Peptides were initially resuspended in 100% DMSO to 10 mM and subsequently diluted in LB medium to the appropriate concentration. Each well was inoculated with 5×10^5 CFU/ml of the screening stain and incubated at 37° C. without agitation for 18 hours. Plates were scored by eye, and the lowest compound concentration preventing visible growth was determined to be the MIC.

K. pneumoniae ATCC43816 = experiment: Minimum Inhibitory Concentration (MIC) determination, K. pneumoniae ATCC43816; parameters: unit not given here
Method: as §2

E. coli BW25113 = experiment: Minimum Inhibitory Concentration (MIC) determination, E. coli BW25113; parameters: unit not given here
In short: as §1

E. coli 25922 IMP = experiment: Minimum Inhibitory Concentration (MIC) determination, E. coli 25922 IMP
In short: as §1

| Structure (SMILES) | MIC E. coli 25922 WUXI::MIC (E. coli 25922) | MIC E. cloacae ATCC222 WUXI::MIC (E. cloacae ATCC222) | MIC K. pneumoniae ATCC43816 Wuxi::MIC (K. pneumoniae ATCC43816) | MIC E. coli BW25113 WUXI::MIC (E. coli BW25113) | MIC E. coli 25922 IMP WUXI::MIC (E. coli 25922 IMP) |
| --- | --- | --- | --- | --- | --- |
| CC[C@@H](C)[C@H]1NC(=O)[C@@H](Cc2ccccc2)NC(=O)CSC[C@H](C(=O)NCC(N)=O)NC(=O)[C@@H](Cc2cncn2C)NC(=O)[C@@H](CCCNC(=N)N)NC(=O)[C@@H](Cc2cnc[nH]2)NC(=O)[C@@H](Cc2ccccc2)N(C)C(=O)[C@@H](CCCNC(=N)N)NC(=O)[C@@H](CO)NC(=O)CNC(=O)[C@@H](Cc2cnc[nH]2)NC(=O)[C@@H](Cc2cccc3ccccc23)NC1=O (racemic) [Compound 17] | 13 | 3.1 | 37.5 | 50 | 0.002 |
| CC[C@@H]1NC(=O)[C@H](Cc2ccccc2)NC(=O)CSC[C@@H](C(=O)NCC(N)=O)NC(=O)[C@H](Cc2cncn2C)NC(=O)[C@H](C)NC(=O)[C@H](Cc2c[nH]cn2)NC(=O)[C@H](Cc2ccc(O)cc2)N(C)C(=O)[C@H](CCCNC(=N)N)NC(=O)[C@H](CO)NC(=O)CNC(=O)[C@H](Cc2c[nH]cn2)NC(=O)[C@H](Cc2cccc3ccccc23)NC1=O (stereo in doubt) [Compound 38] | 100 | 13 | 100 | 100 | 0.063 |
| CC[C@@H]1NC(=O)[C@H](Cc2ccccc2)NC(=O)CSC[C@@H](C(=O)NCC(N)=O)NC(=O)[C@H](Cc2cncn2C)NC(=O)[C@H](CCCNC(=N)N)NC(=O)[C@H](C)NC(=O)[C@H](Cc2ccc(O)cc2)N(C)C(=O)[C@H](CCCNC(=N)N)NC(=O)[C@H](CO)NC(=O)CNC(=O)[C@H](Cc2c[nH]cn2)NC(=O)[C@H](Cc2cccc3ccccc23)NC1=O [Compound 37] ({CH2CO}-F[Abu][1Nal]HGSR[NMeY]AR[His(π-Me)]CG-NH2; thioether N-12) | 100 | 100 | 100 | 100 | 25 |
| CC[C@H](C)[C@@H]1NC(=O)[C@H]([C@@H](C)O)NC(=O)CNC(=O)[C@H](Cc2ccccc2)NC(=O)CSC[C@@H](C(=O)NCC(N)=O)NC(=O)[C@H](Cc2ccccc2)NC(=O)[C@H](Cc2c[nH]c3ccccc23)NC(=O)[C@H](Cc2ccc(O)cc2)NC(=O)[C@H](CCCNC(=N)N)NC(=O)[C@H](Cc2ccccc2)NC(=O)[C@H](CCCNC(=N)N)NC(=O)[C@H](CCCNC(=N)N)NC(=O)[C@H](CCCCN)NC(=O)[C@H](Cc2cnc[nH]2)NC1=O (racemic) [Compound 50] | 2 | >64 | 32 | 2 | 1 |
| CC[C@@H]1NC(=O)[C@H](Cc2ccccc2)NC(=O)CSC[C@@H](C(=O)NCC(N)=O)NC(=O)[C@H](Cc2cncn2C)NC(=O)[C@H](CCCNC(=N)N)NC(=O)[C@H](Cc2cnc[nH]2)NC(=O)[C@H](Cc2ccc(O)cc2)N(C)C(=O)[C@H](CCCNC(=N)N)NC(=O)[C@H](CO)NC(=O)CNC(=O)[C@H](Cc2cnc[nH]2)NC(=O)[C@H](Cc2cccc3ccccc23)NC1=O (racemic) [Compound 16] | 27.32 | 0.2633 | 8.5333 | 14.767 | 1.577 |
| CC[C@@H]1NC(=O)[C@H](Cc2ccccc2)NC(=O)CSC[C@@H](C(=O)NCC(N)=O)NC(=O)[C@H](Cc2cncn2C)NC(=O)[C@H](CCCNC(=N)N)NC(=O)[C@H](Cc2cnc[nH]2)NC(=O)[C@H](Cc2ccc(O)cc2)N(C)C(=O)[C@H](CCCNC(=N)N)NC(=O)[C@H](CO)NC(=O)CNC(=O)[C@H](C)NC(=O)[C@H](Cc2cccc3ccccc23)NC1=O (stereo in doubt) [Compound 35] | 100 | 100 | 100 | 100 | 3.1 |
| CC[C@@H]1NC(=O)[C@H](Cc2ccccc2)NC(=O)CSC[C@@H](C(=O)NCC(N)=O)NC(=O)[C@H](Cc2cncn2C)NC(=O)[C@H](CCCNC(=N)N)NC(=O)[C@H](Cc2c[nH]cn2)NC(=O)[C@H](Cc2ccc(O)cc2)N(C)C(=O)[C@H](CCCNC(=N)N)NC(=O)[C@H](CO)NC(=O)[C@@H](CO)NC(=O)[C@H](Cc2c[nH]cn2)NC(=O)[C@H](Cc2cccc3ccccc23)NC1=O [Compound 27] ({CH2CO}-F[Abu][1Nal]H[dS]SR[NMeY]HR[His(π-Me)]CG-NH2; thioether N-12) | 3.1 | 0.39 | 13 | 13 | 0.002 |
| CC[C@@H]1NC(=O)[C@H](Cc2ccc(Cl)cc2)NC(=O)CSC[C@@H](C(=O)NCC(N)=O)NC(=O)[C@H](Cc2cncn2C)NC(=O)[C@H](CCCNC(=N)N)NC(=O)[C@H](Cc2c[nH]cn2)NC(=O)[C@H](Cc2ccc(O)cc2)N(C)C(=O)[C@H](CCCNC(=N)N)NC(=O)[C@H](CO)NC(=O)CNC(=O)[C@H](Cc2c[nH]cn2)NC(=O)[C@H](Cc2cccc3ccccc23)NC1=O [Compound 22] ({CH2CO}-[Phe(4-Cl)][Abu][1Nal]HGSR[NMeY]HR[His(π-Me)]CG-NH2; thioether N-12) | 6.3 | 0.39 | 13 | 25 | 0.002 |
| CC[C@H](C)[C@@H]1NC(=O)[C@H]([C@@H](C)O)NC(=O)[C@H](Cc2cncn2C)NC(=O)[C@H](Cc2ccccc2)NC(=O)CSC[C@@H](C(=O)NCC(N)=O)NC(=O)[C@H](Cc2ccc(O)cc2)NC(=O)[C@H](Cc2c[nH]c3ccccc23)NC(=O)[C@H](Cc2ccc(O)cc2)NC(=O)[C@H](Cc2cncn2C)NC(=O)[C@H](Cc2ccccc2)NC(=O)C(C)(C)NC(=O)[C@H](CCCNC(=N)N)NC(=O)[C@H](CCCCN)NC(=O)[C@H](CCCNC(=N)N)NC1=O [Compound 51] ({CH2CO}-F[His(π-Me)]TIRKR[Aib]F[His(π-Me)]YWYCG-NH2; thioether N-14) | 8 | >32 | >32 | 8 | 0.5 |
| CC[C@H](C)[C@@H]1NC(=O)[C@H](Cc2ccccc2)NC(=O)CSC[C@@H](C(=O)NCC(N)=O)NC(=O)[C@H](Cc2cncn2C)NC(=O)[C@H](CCCNC(=N)N)NC(=O)[C@H](Cc2cnc[nH]2)NC(=O)[C@H](Cc2ccccc2)N(C)C(=O)[C@H](CCCNC(=N)N)NC(=O)[C@H](CO)NC(=O)CNC(=O)[C@H](Cc2cnc[nH]2)NC(=O)[C@H](Cc2c[nH]c3ccccc23)NC1=O (racemic) [Compound 15] | 50 | 3.1 | 75 | 100 | 0.016 |
